Experimental data as given in ChEMBL document CHEMBL1131884, “Dicationic 2-fluorenonylcarbapenems: potent anti-MRS agents with improved solubility and pharmacokinetic properties” (Bioorg Med Chem Lett, 1999).
≈ marks a conversion by molar mass, not a printed value.

How the values were obtained:
[1] = tested on: Mus musculus; test: In vivo antibacterial activity against MRSA 76 virginia strain at the dose ~1 *10e7 cfu in 5 percent hog gastric mucin along with antibiotic by sc administration at 0 and +4 hrs in mice; type: functional
[2] = tested on: Streptococcus pyogenes; test: Antibacterial activity against Streptococcus pyogenes; type: functional
[3] = Glomerular Filtration Rate(GFR) evaluated in Rhesus monkeys at the dose of 10 mg/kg by iv bolus injection; type: ADME, organism-based; set-up: dose 10 mg/kg, route intravenous; conditions: cercopithecidae, in vivo
[4] = Plasma clearance evaluated in Rhesus monkeys at the dose of 10 mg/kg by iv bolus injection; type: ADME, organism-based; set-up: dose 10 mg/kg, route intravenous; conditions: cercopithecidae
[5] = AUC (area under curve) evaluated in Rhesus monkeys at the dose of 10 mg/kg by iv bolus injection; type: ADME, organism-based, Plasma; set-up: dose 10 mg/kg, route intravenous; conditions: cercopithecidae
[6] = tested on: Enterococcus faecalis; test: Antibacterial activity against Enterococcus faecalis; type: functional
[7] = Renal clearance evaluated in Rhesus monkeys at the dose of 10 mg/kg by iv bolus injection; type: ADME, organism-based, Kidney; set-up: dose 10 mg/kg, route intravenous; conditions: cercopithecidae, in vivo, read-out: Renal clearance
[8] = tested on: Enterococcus faecium; test: Antibacterial activity against vancomycin-resistant Enterococcal faecium strain; type: functional
[9] = tested on: Mus musculus; test: In vivo antibacterial activity against MSSA MB 2985 strain at the dose ~4 *10e7 cfu in brain heart broth along with antibiotic by administration at 0 hour in mice; type: functional
[10] = target: T1, MecA (Staphylococcus aureus, UniProt Q7DHH4); test: Binding affinity against PBP2a receptor by competition analysis with [3H]benzylpenicillin using cell membrane fractions from the MRSA COL strain.
T1 sequence (Q7DHH4 whole entry): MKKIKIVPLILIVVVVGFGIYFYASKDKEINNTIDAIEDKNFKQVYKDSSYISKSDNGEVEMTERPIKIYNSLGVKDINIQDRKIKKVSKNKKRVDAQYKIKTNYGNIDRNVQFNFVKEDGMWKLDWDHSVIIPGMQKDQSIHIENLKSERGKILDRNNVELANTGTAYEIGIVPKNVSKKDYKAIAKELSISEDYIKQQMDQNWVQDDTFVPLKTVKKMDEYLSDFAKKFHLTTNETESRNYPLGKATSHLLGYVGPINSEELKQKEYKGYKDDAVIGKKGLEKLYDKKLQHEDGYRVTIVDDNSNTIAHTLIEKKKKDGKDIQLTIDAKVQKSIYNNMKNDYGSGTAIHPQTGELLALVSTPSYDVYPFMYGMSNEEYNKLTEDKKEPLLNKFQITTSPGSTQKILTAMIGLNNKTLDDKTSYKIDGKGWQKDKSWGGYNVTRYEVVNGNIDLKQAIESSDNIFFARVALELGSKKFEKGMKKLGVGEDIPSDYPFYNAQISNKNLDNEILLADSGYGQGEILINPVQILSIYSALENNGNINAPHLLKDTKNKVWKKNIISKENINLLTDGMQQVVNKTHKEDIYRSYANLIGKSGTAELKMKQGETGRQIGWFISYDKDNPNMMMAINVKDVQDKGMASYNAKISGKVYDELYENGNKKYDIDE

[11] = tested on: Staphylococcus aureus; test: Antibacterial activity against MSSA (Methicillin-sensitive Staphylococcus aureus); type: functional
[12] = tested on: Enterococcus faecalis; test: Antibacterial activity against vancomycin-resistant Enterococcus faecalis strain; type: functional
[13] = target: T2, Dipeptidase 1 (Sus scrofa) (UniProt P22412); test: Susceptibility to mammalian dehydropeptidas, DHP-1(Porcine)
T2 sequence (whole entry): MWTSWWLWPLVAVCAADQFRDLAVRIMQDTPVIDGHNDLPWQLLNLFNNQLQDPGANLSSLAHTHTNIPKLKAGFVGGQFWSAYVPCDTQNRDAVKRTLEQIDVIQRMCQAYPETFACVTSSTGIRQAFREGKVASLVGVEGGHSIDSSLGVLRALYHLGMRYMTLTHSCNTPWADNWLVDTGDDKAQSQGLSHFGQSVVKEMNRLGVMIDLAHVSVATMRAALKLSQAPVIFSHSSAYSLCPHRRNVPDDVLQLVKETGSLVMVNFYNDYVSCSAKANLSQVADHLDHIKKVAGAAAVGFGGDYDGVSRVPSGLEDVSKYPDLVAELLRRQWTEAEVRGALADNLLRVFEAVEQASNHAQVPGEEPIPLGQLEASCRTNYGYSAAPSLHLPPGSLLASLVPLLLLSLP

[14] = Half life evaluated in Rhesus monkeys at the dose of 10 mg/kg by iv bolus injection; type: ADME, organism-based; set-up: dose 10 mg/kg, route intravenous; conditions: cercopithecidae, in vivo, read-out: Beta t1/2 (converted)
[15] = tested on: Mus musculus; test: In vivo antibacterial activity against MSSA MB 2985 strain at the dose ~4 *10e7 cfu in brain heart broth along with antibiotic by sc administration at 0 hour in mice; type: functional
[16] = tested on: Staphylococcus sp.; test: Antibacterial activity against methicillin-resistant coagulase negative Staphylococci (MRCNS); type: functional
[17] = tested on: Staphylococcus aureus; test: Antibacterial activity against methicillin-resistant Staphylococcus aureus (MRSA); type: functional
[18] = tested on: Streptococcus pneumoniae; test: Antibacterial activity against penicillin-resistant Streptococcus pneumoniae; type: functional
[19] = tested on: Bacteria; test: Antibacterial activity against Gram negative bacteria; type: functional
[20] = tested on: Streptococcus pyogenes; test: Antibacterial activity against Streptococcus pyogenes
[21] = target: T2, Dipeptidase 1 (Sus scrofa); test: Susceptibility to mammalian dehydropeptidase, DHP-1(Porcine)
[22] = Half life compared to Cilastatin evaluated in Rhesus monkeys at the dose of 10 mg/kg by iv bolus injection; type: ADME, organism-based; set-up: dose 10 mg/kg, route intravenous; conditions: cercopithecidae, in vivo, read-out: Beta t1/2 (converted)
[23] = AUC (area under curve) compared to Cilastatin evaluated in Rhesus monkeys at the dose of 10 mg/kg by iv bolus injection; type: ADME, organism-based; set-up: dose 10 mg/kg, route intravenous; conditions: cercopithecidae, plasma
[24] = Plasma clearance compared to Cilastatin evaluated in Rhesus monkeys at the dose of 10 mg/kg by iv bolus injection; type: ADME, organism-based; set-up: dose 10 mg/kg, route intravenous; conditions: cercopithecidae
[25] = Renal clearance compared to Cilastatin evaluated in Rhesus monkeys at the dose of 10 mg/kg by iv bolus injection; type: ADME, organism-based, Kidney; set-up: dose 10 mg/kg, route intravenous; conditions: cercopithecidae, in vivo, read-out: Renal clearance
[26] = Glomerular Filtration Rate(GFR)of the compound compared to Cilastatin evaluated in Rhesus monkeys at the dose of 10 mg/kg by iv bolus injection; type: ADME, organism-based; set-up: dose 10 mg/kg, route intravenous; conditions: cercopithecidae, in vivo
[27] = Urinary recovery compared to Cilastatin evaluated in Rhesus monkeys at the dose of 10 mg/kg by iv bolus injection; type: ADME, organism-based, Urine; set-up: dose 10 mg/kg, route intravenous; conditions: cercopithecidae, in vivo

| Structure (SMILES) | ED50 [1] [mg kg-1 dose-1] | MIC [1] [µg/mL] | MIC [2] [µg/mL] | GFR [3] [mL/min/kg] | clearance [4] [mL/min/kg] | MIC [6] [µg/mL] | CL renal [7] [mL/min/kg] | MIC [8] [µg/mL] | MIC [9] [ng/mL] | IC50 [10] [nM] | MIC [11] [µg/mL] | MIC [12] [µg/mL] | half-life [14] [min] | ED50 [15] [mg/kg] | MIC50 [16] [µg/mL] | MIC90 [16] [µg/mL] | MIC50 [17] [µg/mL] | MIC90 [17] [µg/mL] | MIC [18] [µg/mL] | MIC [19] [µg/mL] | also measured |
| --- | --- | --- | --- | --- | --- | --- | --- | --- | --- | --- | --- | --- | --- | --- | --- | --- | --- | --- | --- | --- | --- |
| C[C@@H](O)[C@H]1C(=O)N2C(C(=O)[O-])=C(c3ccc4c(c3)-c3ccc(C[n+]5ccn(C)c5)cc3C4=O)C[C@H]12 | 0.92 | 1 (≈ 2.13 µM) | < 0.031 | 3.19 | 5.56 | 0.125 (≈ 0.266 µM) | 2.34 | 4 (≈ 8.52 µM) | 8 (≈ 0.017 µM) | 1060 | 0.03 (≈ 0.0639 µM) | 1 (≈ 2.13 µM) | 70.2 | 0.034 | 2 (≈ 4.26 µM) | 4 (≈ 8.52 µM) | 1 (≈ 2.13 µM) | 2 (≈ 4.26 µM) | < 0.03 | 1.37 (≈ 2.92 µM) | AUC ([5]; plasma, read-out: AUC): 30400 ng·h/mL; Rate of hydrolysis [13]: 0.078 |
| C[C@@H](O)[C@H]1C(=O)N2C(C(=O)[O-])=C(c3ccc4c(c3)-c3ccc(C[N+]56CC[N+](CC(N)=O)(CC5)CC6)cc3C4=O)C[C@H]12.[Cl-] | 0.5 | 1 | – | 2.96 | 4.74 | 0.125 | 1.88 | 16 | 4 | 573 | 0.03 | 2 | 54.6 | 0.042 | 2 | 2 | 1 | 4 | 0.09 | 1.05 | MIC [20]: < 0.031 µg/mL; AUC ([5]; in vivo): 35.14 µg/mL; Rate of hydrolysis [21]: 0.055 |
| C[C@@H](O)[C@H]1C(=O)N2C(C(=O)O)=C(SCCN=CN)C[C@H]12 [IMIPENEM ANHYDROUS] | – | – | – | – | – | – | – | – | – | 334000 | – | – | – | – | – | – | – | – | – | – | half-life [22]: 36 min; AUC [23]: 24800 ng·h/mL; clearance [24]: 6.72 mL/min/kg; CL renal [25]: 5.44 mL/min/kg; GFR [26]: 2.98 mL/min/kg; Urinary recovery [27]: 82 |
| C[C@@H](O)[C@H]1C(=O)N2C(C(=O)[O-])=C(c3ccc4c(c3)-c3ccc(C[N+]56CC[N+](CC(N)=O)(CC5)CC6)cc3C4=O)[C@H](C)[C@H]12.[Cl-] | 1 | 2 | < 0.031 | 3.48 | 2.95 | 0.5 | 2.72 | 8 | 31 | 1320 | 0.03 | 8 | 81 | 0.021 | 4 | 8 | 4 | 4 | 0.24 | 3.6 | AUC ([5]; plasma, read-out: AUC): 56400 ng·h/mL; Rate of hydrolysis [13]: 0.021 |
